From patent US20230265116A1, “DEGRADATION OF (EGFR) BY CONJUGATION OF EGFR INHIBITORS WITH E3 LIGASE LIGAND AND METHODS OF USE” (BEIGENE, LTD., priority 2020, published 2023) come the findings set out here.

The subject of experiment [1] is EGFR Del19/T790M/C797S (H1975-clone #28). Nature of the experiment: EGFR degradation HTRF assay, H1975-clone #28 DTC cells. It is filed as cell-based. Particulars: H1975 # 28 DTC cells; for DC50: EGFR degradation, IC50 (DC50) from curve fit, read-out: DC50(nM) H1975 # 28 DTC; for Dmax (%) H1975 # 28 DTC: maximum percentage of inhibition (degradation). The essentials: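 H1975 clones stably overexpressing mutant EGFR, with endogenous EGFR knocked out by sgRNA and homozygosity confirmed by sequencing, were treated 16h at 37° C. with compounds in 0.2% DMSO (top final 10 uM, 5-fold, 8 doses). Lysates were read by HTRF (665/620 nm); DC50 and Dmax came from fitting % degradation versus DMSO control.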

For experiment [2], the target named is T1, EGFR L858R/T790M/C797S (BaF3-LTC cells) (Homo sapiens, UniProt P00533, C797S/L858R/T790M).
T1 construct: expressed in transfected cells; host or cells: BaF3
Nature of the experiment: EGFR degradation HTRF assay, BaF3-LTC cells. It is filed as cell-based. The note with it: BaF3-LTC cells; for DC50: EGFR degradation, IC50 (DC50) from curve fit, read-out: DC50(nM) BaF3-LTC; for Dmax: maximum percentage of inhibition (degradation), read-out: Dmax (%) BaF3-LTC. The essentials: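 EGFR remaining after a 16 h, 37 °C exposure (8 doses, 5-fold steps from 10 uM final, 0.2% DMSO) was quantified by HTRF antibodies in cell lysate. Percent inhibition relative to DMSO control was fitted by four-parameter logistic to give DC50; Dmax denotes maximal degradation.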

T1 sequence (P00533 25-1210 T790M/C797S/L858R): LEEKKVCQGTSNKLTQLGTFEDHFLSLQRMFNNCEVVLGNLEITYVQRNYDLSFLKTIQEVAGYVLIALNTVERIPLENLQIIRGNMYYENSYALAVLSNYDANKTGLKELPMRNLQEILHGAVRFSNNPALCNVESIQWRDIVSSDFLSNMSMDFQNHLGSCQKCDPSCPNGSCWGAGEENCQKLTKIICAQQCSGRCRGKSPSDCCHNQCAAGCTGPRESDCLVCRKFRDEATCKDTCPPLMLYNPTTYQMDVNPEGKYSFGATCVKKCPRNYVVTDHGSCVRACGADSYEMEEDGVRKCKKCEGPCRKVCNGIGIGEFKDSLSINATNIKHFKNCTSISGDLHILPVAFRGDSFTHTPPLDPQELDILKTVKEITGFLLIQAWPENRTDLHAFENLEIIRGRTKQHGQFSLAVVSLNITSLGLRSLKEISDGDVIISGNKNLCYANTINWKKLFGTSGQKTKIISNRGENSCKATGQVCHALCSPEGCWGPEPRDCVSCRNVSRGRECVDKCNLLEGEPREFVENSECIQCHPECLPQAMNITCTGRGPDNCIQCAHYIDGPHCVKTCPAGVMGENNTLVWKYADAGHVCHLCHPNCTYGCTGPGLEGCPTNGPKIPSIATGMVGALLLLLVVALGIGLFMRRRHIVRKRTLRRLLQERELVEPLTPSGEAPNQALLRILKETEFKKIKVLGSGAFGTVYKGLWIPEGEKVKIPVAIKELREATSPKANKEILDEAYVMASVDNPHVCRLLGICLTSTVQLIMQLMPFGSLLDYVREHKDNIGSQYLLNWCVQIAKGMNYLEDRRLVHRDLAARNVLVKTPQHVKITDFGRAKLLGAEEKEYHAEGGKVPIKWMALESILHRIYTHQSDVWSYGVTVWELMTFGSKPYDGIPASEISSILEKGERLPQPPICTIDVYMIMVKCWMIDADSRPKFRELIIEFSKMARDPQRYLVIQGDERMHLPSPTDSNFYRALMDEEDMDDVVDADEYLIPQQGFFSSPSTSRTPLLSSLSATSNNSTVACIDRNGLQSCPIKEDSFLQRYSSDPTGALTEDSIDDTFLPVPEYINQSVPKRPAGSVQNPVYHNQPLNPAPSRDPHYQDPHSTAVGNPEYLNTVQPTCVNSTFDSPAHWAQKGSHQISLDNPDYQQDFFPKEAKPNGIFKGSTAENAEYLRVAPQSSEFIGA

As for `CCc1cc(Nc2ncc(Br)c(Nc3ccc4nc(C)ccc4c3P(C)(C)=O)n2)c(OC2CC2)cc1N1CCC(N2CCN(C(=O)[C@@H]3CCN(c4cc(F)c([C@H]5CCC(=O)NC5=O)c(F)c4)C3)CC2)CC1` [Example 544, (R)-3-(4-((R)-3-(4-(1-(4-((5-bromo-4-((5-(dimethylphosphoryl)-2-methylquinolin-6-yl)amino)pyrimidin-2-yl)amino)-5-cyclopropoxy-2-ethylphenyl)piperidin-4-yl)piperazine-1-carbonyl)pyrrolidin-1-yl)-2,6-difluorophenyl)piperidine-2,6-dione], in experiment [1], the DC50 (commonly the concentration giving 50% degradation) worked out at 1.48 nM and the “Dmax (%) H1975 # 28 DTC” value is listed as 81.13%. For the same molecule, in experiment [2], the DC50 was 12.5 nM and the Dmax (in general, the greatest extent of degradation seen) stood at 90.3%.

Take `CCc1cc(Nc2ncc(Br)c(Nc3ccc4nc(C#N)ccc4c3P(C)(C)=O)n2)c(OC)cc1N1CCC(N2CCN(CCc3cc(F)c([C@H]4CCC(=O)NC4=O)c(F)c3)CC2)CC1` [Example 682, (R)-6-((5-bromo-2-((4-(4-(4-(4-(2,6-dioxopiperidin-3-yl)-3,5-difluorophenethyl)piperazin-1-yl)piperidin-1-yl)-5-ethyl-2-methoxyphenyl)amino)pyrimidin-4-yl)amino)-5-(dimethylphosphoryl)quinoline-2-carbonitrile]: in experiment [1], the DC50 amounted to 0.91 nM and the “Dmax (%) H1975 # 28 DTC” value came out at 87.08%. Moreover, in experiment [2], the DC50 amounted to 6.79 nM and the Dmax came out at 95%.

With `CCc1ccc2c(P(C)(C)=O)c(Nc3nc(Nc4cc(C5CC5)c(N5CCC(N6CCN(CCc7cccc8c7oc(=O)n8C7CCC(=O)NC7=O)CC6)CC5)cc4OC)ncc3Br)ccc2n1` (centres unmarked) [Example 631, 3-(7-(2-(4-(1-(4-((5-bromo-4-((5-(dimethylphosphoryl)-2-ethylquinolin-6-yl)amino)pyrimidin-2-yl)amino)-2-cyclopropyl-5-methoxyphenyl)piperidin-4-yl)piperazin-1-yl)ethyl)-2-oxobenzo[d]oxazol-3(2H)-yl)piperidine-2,6-dione], in experiment [1], the DC50 was determined as 1.04 nM and the “Dmax (%) H1975 # 28 DTC” value worked out at 82.5%. In experiment [2], the DC50 turned out to be 9.33 nM and the Dmax was found to be 86.8%.

As to `CCOc1cc(N2CCC(N3CCN(CCc4cc(F)c([C@H]5CCC(=O)NC5=O)c(F)c4)CC3)CC2)c(CC)cc1Nc1ncc(Cl)c(Nc2cc(F)c3nc(CC)ccc3c2P(C)(C)=O)n1` [Example 730, (R)-3-(4-(2-(4-(1-(4-((5-chloro-4-((5-(dimethylphosphoryl)-2-ethyl-8-fluoroquinolin-6-yl)amino)pyrimidin-2-yl)amino)-5-ethoxy-2-ethylphenyl)piperidin-4-yl)piperazin-1-yl)ethyl)-2,6-difluorophenyl)piperidine-2,6-dione], in experiment [1], the DC50 stood at 8.9 nM and the “Dmax (%) H1975 # 28 DTC” value stood at 81.41%. For the same molecule, the half-maximal degradation concentration (DC50) in experiment [2] came out at 81.1 nM.

As for `CCOc1cc(N2CCC(N3CCN(CCc4ccc5c(c4)oc(=O)n5C4CCC(=O)NC4=O)CC3)CC2)c(C)cc1Nc1ncc(Br)c(Nc2ccc3nc(CC)ccc3c2P(C)(C)=O)n1` (centres unmarked) [Example 552, 3-(6-(2-(4-(1-(4-((5-bromo-4-((5-(dimethylphosphoryl)-2-ethylquinolin-6-yl)amino)pyrimidin-2-yl)amino)-5-ethoxy-2-methylphenyl)piperidin-4-yl)piperazin-1-yl)ethyl)-2-oxobenzo[d]oxazol-3 (2H)-yl)piperidine-2,6-dione], in experiment [1], the DC50 was 0.367 nM and the “Dmax (%) H1975 # 28 DTC” value is 71.85%. Moreover, in experiment [2], the DC50 was 4.35 nM and the Dmax is 85.7%.

For `CCOc1cc(N2CCC(N3CCN(CCc4c(C)c(F)cc5c4oc(=O)n5C4CCC(=O)NC4=O)CC3)CC2)c(CC)cc1Nc1ncc(Br)c(Nc2cc(F)c3nc(CC)ccc3c2P(C)(C)=O)n1` (centres unmarked) [Example 593, 3-(7-(2-(4-(1-(4-((5-bromo-4-((5-(dimethylphosphoryl)-2-ethyl-8-fluoroquinolin-6-yl)amino)pyrimidin-2-yl)amino)-5-ethoxy-2-ethylphenyl)piperidin-4-yl)piperazin-1-yl)ethyl)-5-fluoro-6-methyl-2-oxobenzo[d]oxazol-3(2H)-yl)piperidine-2,6-dione], in experiment [1], the DC50 was 1.26 nM and the “Dmax (%) H1975 # 28 DTC” value stood at 76.9%. Further, in experiment [2], the DC50 was 13.2 nM and the Dmax turned out to be 82.6%.

Regarding `CCOc1cc(N2CCC(N3CCN(CCC4CCN(c5cc(F)cc6c5oc(=O)n6C5CCC(=O)NC5=O)CC4)CC3)CC2)c(CC)cc1Nc1ncc(Br)c(Nc2ccc3nc(CC)ccc3c2P(C)(C)=O)n1` (centres unmarked) [Example 556, 3-(7-(4-(2-(4-(1-(4-((5-bromo-4-((5-(dimethylphosphoryl)-2-ethylquinolin-6-yl)amino)pyrimidin-2-yl)amino)-5-ethoxy-2-ethylphenyl)piperidin-4-yl)piperazin-1-yl)ethyl)piperidin-1-yl)-5-fluoro-2-oxobenzo[d]oxazol-3(2H)-yl)piperidine-2,6-dione], in experiment [1], the DC50 turned out to be 4.03 nM and the “Dmax (%) H1975 # 28 DTC” value was found to be 98.64%. Further, in experiment [2], the 50% degradation concentration (DC50) worked out at 14.8 nM and the Dmax was determined as 92.2%.

Take `CCOc1cc(N2CCC(N3CCN(C[C@H]4CCN(c5cccc6c5oc(=O)n6C5CCC(=O)NC5=O)C4)CC3)CC2)c(CC)cc1Nc1ncc(Br)c(Nc2ccc3nc(CC)ccc3c2P(C)(C)=O)n1` (stereo partly drawn) [Example 561, 3-(7-((R)-3-((4-(1-(4-((5-bromo-4-((5-(dimethylphosphoryl)-2-ethylquinolin-6-yl)amino)pyrimidin-2-yl)amino)-5-ethoxy-2-ethylphenyl)piperidin-4-yl)piperazin-1-yl)methyl)pyrrolidin-1-yl)-2-oxobenzo[d]oxazol-3(2H)-yl)piperidine-2,6-dione]: in experiment [1], the DC50 was 1.68 nM and the “Dmax (%) H1975 # 28 DTC” value was found to be 77.5%. Besides, in experiment [2], the DC50 was 10.3 nM and the Dmax worked out at 89.5%.

For `CCc1ccc2c(P(C)(C)=O)c(Nc3nc(Nc4cc(CC)c(N5CCC(N6CCN(C(=O)CN7CCN(c8cc(F)c([C@H]9CCC(=O)NC9=O)c(F)c8)CC7)CC6)CC5)cc4OC)ncc3Br)ccc2n1` [Example 665, (R)-3-(4-(4-(2-(4-(1-(4-((5-bromo-4-((5-(dimethylphosphoryl)-2-ethylquinolin-6-yl)amino)pyrimidin-2-yl)amino)-2-ethyl-5-methoxyphenyl)piperidin-4-yl)piperazin-1-yl)-2-oxoethyl)piperazin-1-yl)-2,6-difluorophenyl)piperidine-2,6-dione], in experiment [1], the DC50 came to 0.543 nM and the “Dmax (%) H1975 # 28 DTC” value was determined as 85.47%. Further, in experiment [2], the DC50 is 1.49 nM and the Dmax stood at 97.9%.

With `CCc1ccc2c(P(C)(C)=O)c(Nc3nc(Nc4cc(C)c(N5CCC(N6CCN(CCc7ccc8c(c7)oc(=O)n8C7CCC(=O)NC7=O)CC6)CC5)cc4OC4CC4)ncc3Br)ccc2n1` (centres unmarked) [Example 568, 3-(6-(2-(4-(1-(4-((5-bromo-4-((5-(dimethylphosphoryl)-2-ethylquinolin-6-yl)amino)pyrimidin-2-yl)amino)-5-cyclopropoxy-2-methylphenyl)piperidin-4-yl)piperazin-1-yl)ethyl)-2-oxobenzo[d]oxazol-3(2H)-yl)piperidine-2,6-dione], in experiment [1], the DC50 stood at 2.38 nM and the “Dmax (%) H1975 # 28 DTC” value is listed as 91.62%. In experiment [2], the DC50 was determined as 10.4 nM and the greatest degradation seen (Dmax) was found to be 87%.

Take `COc1cc(N2CCC3(CCN(CCCCCOc4cccc5c4CN(C4CCC(=O)NC4=O)C5=O)CC3)CC2)c(C)cc1Nc1ncc(Br)c(Nc2ccc3nccnc3c2P(C)(C)=O)n1` (centres unmarked) [Example 542, 3-(4-((5-(9-(4-((5-bromo-4-((5-(dimethylphosphoryl)quinoxalin-6-yl)amino)pyrimidin-2-yl)amino)-5-methoxy-2-methylphenyl)-3,9-diazaspiro[5.5]undecan-3-yl)pentyl)oxy)-1-oxoisoindolin-2-yl)piperidine-2,6-dione]: in experiment [1], the DC50 was found to be 0.75 nM and the “Dmax (%) H1975 # 28 DTC” value came out at 45.37%. In addition, the DC50 in experiment [2] came out at 11.2 nM.

Consider `CCc1ccc2c(P(C)(C)=O)c(Nc3nc(Nc4cc(CC)c(N5CCC(N6CCN(CCc7cccc8c7n(C)c(=O)n8C7CCC(=O)NC7=O)CC6)CC5)cc4OC)ncc3Br)ccc2n1` (centres unmarked) [Example 451, 3-(4-(2-(4-(1-(4-((5-bromo-4-((5-(dimethylphosphoryl)-2-ethylquinolin-6-yl)amino)pyrimidin-2-yl)amino)-2-ethyl-5-methoxyphenyl)piperidin-4-yl)piperazin-1-yl)ethyl)-3-methyl-2-oxo-2,3-dihydro-1H-benzo[d]imidazol-1-yl)piperidine-2,6-dione], for which, in experiment [1], the DC50 was found to be 0.612 nM and the “Dmax (%) H1975 # 28 DTC” value turned out to be 70.68%. Further, in experiment [2], the DC50 came to 3.64 nM and the Dmax was found to be 95.4%.

As to `CCOc1cc(N2CCC(N3CCN(CCc4c(F)cc5c(oc(=O)n5C5CCC(=O)NC5=O)c4F)CC3)CC2)c(CC)cc1Nc1ncc(Br)c(Nc2ccc3c(=O)n(CC)ncc3c2P(C)(C)=O)n1` (centres unmarked) [Example 629, 3-(6-(2-(4-(1-(4-((5-bromo-4-((5-(dimethylphosphoryl)-2-ethyl-1-oxo-1,2-dihydrophthalazin-6-yl)amino)pyrimidin-2-yl)amino)-5-ethoxy-2-ethylphenyl)piperidin-4-yl)piperazin-1-yl)ethyl)-5,7-difluoro-2-oxobenzo[d]oxazol-3(2H)-yl)piperidine-2,6-dione], in experiment [1], the 50% degradation concentration (DC50) was found to be 0.965 nM and the “Dmax (%) H1975 # 28 DTC” value is 71.58%. Besides, in experiment [2], the half-maximal degradation concentration (DC50) is 7.66 nM and the Dmax stood at 89.5%.
